Values of other authors, collected in US20060199791A1, “Anti-microbial composition comprising a metal ion chelating agent” (AQ+ PLC, priority 2001, published 2006).

Tested on: long term sinus infection
Settings: patient history, infection for some 14 to 15 years

SMILES	response of the sinus infection to earlier antibiotic treatment
O=C(O)c1cn(C2CC2)c2cc(N3CCNCC3)c(F)cc2c1=O [Cipro]	resistant to treatment
CCC[C@@H]1C[C@@H](C(=O)N[C@@H]([C@H]2O[C@H](SC)[C@H](O)[C@@H](O)[C@H]2O)[C@H](C)Cl)N(C)C1 [Clindramycin]	resistant to treatment
CC1(C)S[C@@H]2[C@H](NC(=O)[C@H](N)c3ccc(O)cc3)C(=O)N2[C@H]1C(=O)O [Trimox]	resistant to treatment
CC1(C)S[C@@H]2[C@H](NC(=O)COc3ccccc3)C(=O)N2[C@H]1C(=O)O [Veetids]	resistant to treatment
